Measurements taken from publication PMC9163592 (The Journal of Biological Chemistry, 2022).

Key:
IsdH NEAT3 = IsdH NEAT3 (Staphylococcus aureus, UniProt Q931P4); experiment: biochemical
IsdH linker-NEAT3 = IsdH linker-NEAT3 (Staphylococcus aureus, UniProt Q931P4); experiment: biochemical
Chain of IsdH linker-NEAT3 (Q931P4 486-664): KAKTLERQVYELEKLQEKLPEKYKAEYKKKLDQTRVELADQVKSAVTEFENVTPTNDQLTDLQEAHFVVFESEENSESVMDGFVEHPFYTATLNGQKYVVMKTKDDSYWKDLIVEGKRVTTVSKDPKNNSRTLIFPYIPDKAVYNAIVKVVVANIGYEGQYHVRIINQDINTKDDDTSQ

Chain of IsdH NEAT3 (Q931P4 539-664): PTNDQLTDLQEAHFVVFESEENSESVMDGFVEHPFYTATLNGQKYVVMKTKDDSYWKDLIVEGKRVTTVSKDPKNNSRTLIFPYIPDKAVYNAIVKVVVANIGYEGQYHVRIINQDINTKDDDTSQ

C=CC1=C(C)C2=Cc3c(C=C)c(C)c4[n]3[Fe]([Cl])[n]3c(c(C)c(CCC(=O)O)c3=CC3=NC(=C4)C(C)=C3CCC(=O)O)=CC1=N2 [heme]
Kd (IsdH NEAT3): 1050 ± 150 pM
Kd (IsdH linker-NEAT3): 510 ± 160 pM
